Legend:
HT1080 cells = experiment: Cellular assay: inhibition of 2-HG production in HT1080 cells (LC-MS, 48 hours); assay type: cell-based; settings: Homo sapiens, HT-1080, 2-HG in media by LC-MS
Summary of the method: (§1)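 HT1080 or U87MG cells (5000/well, DMEM + 10% FBS) seeded overnight, then exposed to compound (0.2% DMSO final) for 48 h; medium 2-HG measured by LC-MS. Viability read by CellTiter-Glo luminescence at 72 h.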

IDH1 R132H = IDH1 R132H (Homo sapiens, UniProt O75874, R132H); experiment: In vitro assay for IDH1 R132H inhibitors (NADPH/aKG, resazurin detection); assay type: biochemical; settings: Table 4B; 0.2 μg/ml IDH1 R132H, 50 minutes at room temperature; read-out: IC50, IDH1 R132H Inhibition
Sequence of IDH1 R132H (O75874 whole entry R132H): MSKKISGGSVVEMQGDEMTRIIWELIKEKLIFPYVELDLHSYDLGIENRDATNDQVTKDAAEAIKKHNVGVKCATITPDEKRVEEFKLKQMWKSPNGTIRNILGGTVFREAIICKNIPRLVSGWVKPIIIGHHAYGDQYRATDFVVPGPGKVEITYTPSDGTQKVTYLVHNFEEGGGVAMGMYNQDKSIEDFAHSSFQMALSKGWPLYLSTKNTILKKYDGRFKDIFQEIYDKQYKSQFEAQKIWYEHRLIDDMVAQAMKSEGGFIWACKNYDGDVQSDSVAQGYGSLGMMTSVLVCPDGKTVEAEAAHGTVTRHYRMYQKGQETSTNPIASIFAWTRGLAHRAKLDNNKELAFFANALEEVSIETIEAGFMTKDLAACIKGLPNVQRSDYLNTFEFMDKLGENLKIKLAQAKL
Summary of the method: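 Buffer: 150 mM NaCl, 10 mM MgCl2, 20 mM Tris pH 7.5, 0.03% BSA. Compound was added to substrate mix (8 uM NADPH, 2 mM aKG), then enzyme mix (0.2 μg/ml IDH1 R132H), and incubated 50 min at room temperature. Remaining NADPH was read by resazurin (30 μM in detection mix) to resorufin fluorescence after 5 min, Ex544/Em590.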

U87MG cells = experiment: Cellular assay: inhibition of 2-HG production in U87MG cells (LC-MS, 48 hours); assay type: cell-based; settings: Homo sapiens, U-87 MG, 2-HG in media by LC-MS
Summary of the method: as §1

Structure (SMILES)	IC50 (HT1080 cells) [nM]	IC50 (IDH1 R132H) [nM]	IC50 (U87MG cells) [nM]
Cc1ccccc1C(C(=O)NC1CC(F)(F)C1)N(C(=O)CNc1ncccc1F)c1cccc(F)c1 (stereo not drawn) [Compound 379]	250 to 1000	100 to 1000	250 to 1000
Cc1ccccc1C(C(=O)NC1CCCCC1)N(Cc1cccs1)C(=O)Oc1ccccc1 (stereo not drawn) [Compound 387]	1000 to 5000	1000 to 10000	> 5000

The remaining lines, values ahead:

IC50 (HT1080 cells) [nM]	IC50 (IDH1 R132H) [nM]	IC50 (U87MG cells) [nM]	Structure (SMILES)
1000 to 5000	100 to 1000	≤ 250	Cc1ccccc1C(C(=O)NC1CC(F)(F)C1)N(C(=O)Cn1ccnc1C)c1cccc(F)c1 (stereo not drawn) [Compound 380]
≤ 250	≤ 100	≤ 250	Cc1ccccc1C(C(=O)NC1CC(F)(F)C1)N(C(=O)CNc1cccnc1F)c1cccc(F)c1 (stereo not drawn) [Compound 381]
1000 to 5000	100 to 1000	1000 to 5000	Cc1cnccc1NC(=O)N(Cc1cccs1)C(C(=O)NC1CCCCC1)c1ccccc1C (stereo not drawn) [Compound 389]
